Entries after “also recorded” stand apart in the source; their conditions may differ.
Assays:
genital mucosal barrier [1] = assay: Murine tissue permeability assay, low molecular weight fluorescent molecules given intravaginally; format: in vivo, mice
Method: Effects of progestins on genital mucosal barrier permeability were evaluated by intravaginally (ivag) administering 457 Da and 70 KDa-sized fluorescent molecules to mice in estrus or diestrus-stage or after DMPA or LNG treatment. Mice were grouped as follows: untreated in estrus, untreated in diestrus, DMPA treated, or LNG treated. The mice were intravaginally administered a PBS solution containing Lucifer yellow (457 Da) and Texas-Red-conjugated dextran (70 KDa). Animals were euthanized 45 minutes later to assess vaginal tissue penetration of these molecules by confocal microscopy. […] Mucosal permeability was increased moderately by diestrus, but dramatically by DMPA or LNG. Conversely, permeability increases were negligible in estrus-stage mice and mice treated with MePRDL or DMPA and RU486. This indicates exogenous progestins increase genital mucosal permeability.
To evaluate mucosal permeability to low molecular weight molecules, indicated groups of mice were sedated, and 10 μL of a PBS solution containing 62.5 μg of dextran Texas-Red® (DR) (MW=70,000 Da) and 50 μg of Lucifer yellow CH, lithium salt (LY) (MW=457.2 Da) (both from Life Technologies) administered intravaginally. 45 minutes later, mice were euthanized, and excised vaginal tissue fixed in formaldehyde. Fixed tissue was embedded in agarose, and 200-300 μm specimens were sectioned with a vibratome. After counterstaining with 4,6-diamidino-2-phenylindole (DAPI), confocal microscopy images were acquired by sequential scanning to prevent fluorescence crossover.

HSV-1 = assay: Genital HSV-1 GFP infection, virus replication in vaginal epithelium; format: in vivo, mice; details: 1.5 ug/30 uL ivag 24 h prior to 3×10^3 PFU HSV-1 GFP; tissue 24 h after infection
Method: Estrus-stage or DMPA-treated mice were intravaginally administered vehicle or recombinant mouse Fc-EFNA3 at 1.5 ug/30 uL 24 h prior to genital infection with 3×10^3 PFU HSV-1q GFP (fluorescent virus). Vaginal tissue was recovered 24 h after infection and evaluated for HSV-1 replication in the vaginal epithelium using confocal microscopy. […] To evaluate if treatment with rm-EphrinA3 protects mice from lethal HSV-2 infection, DMPA-treated mice were intravaginally administered Fc- or His-tagged versions of the rm-protein prior to infection. […] Because the microarray data indicated EphrinA1, EphrinA2, EphrinA3, EphrinA4, and EphrinA5 were upstream regulators of Dsg1 and Dsc1 expression in the mouse vagina, we hypothesized that capacity of EphrinA3 to increase cell-cell adhesion molecule expression may be shared by other members of the EphrinA family.

genital mucosal tissue = assay: Entry of CFSE-labeled splenocytes into genital mucosal tissue; format: in vivo; details: CFSE-labeled splenocytes ivag, 12 hours; vs estrus-stage mice
Method: Estrus-stage or DMPA-treated mice were administered CFSE-labeled splenocytes intravaginally and euthanized 12 hours later. Relative leukocyte infiltration of vaginal mucosal tissue in estrus-stage vs. DMPA-treated mice was evaluated by confocal microscopy.
These findings established progestin mediated increases in mucosal permeability promote both passive entry of low molecular weight molecules and incursion of larger-sized cells that are more reliant on energy-dependent processes.

[2] = test system: claudin-1, occludin, and tight junction protein 1; assay: Gene expression of other cell-cell adhesion molecules in vaginal tissue; format: in vivo, mice
genital mucosal barrier [3] = assay: Murine tissue permeability assay, low molecular weight fluorescent molecules given intravaginally; format: in vivo, mice; details: germ-free mice
[4] = test system: genital mucosal permeability; assay: Human tissue permeability assay on biopsy specimens; design: species or system women
Method: To confirm the relevance of the mouse model findings, DMPA-mediated changes in mucosal permeability was explored with ectocervical biopsies from women using no hormonal contraceptive and again 1 month after they initiated DMPA.
[…] biopsy specimens obtained from women were placed in transport media, transferred into sterile 96-well plates, and incubated 45 minutes in a 20 μL solution of PBS containing LY and DR (at the same concentrations used in mouse studies). Tissue was likewise fixed and embedded as detailed for mice. Stratified squamous epithelium, lamina propria, and connective tissue were identified using light microscopy (at 100× magnification), while images obtained at 400× magnification were used to quantify penetration of LY into ectocervical tissue.

markers of inflammation = assay: Expression of markers of inflammation in ectocervical biopsies from women; format: in vivo; details: 1 month after initiating DMPA vs no hormonal contraceptive
DSG1 protein = DSG1 protein levels in vaginal tissue, immunofluorescent staining and confocal microscopy; format: in vivo, mice; details: progestin-treated mice vs mice in estrus
Method: Excised mouse vaginas were formaldehyde fixed and paraffin embedded (FFPE), and 10 μm sections mounted on glass slides and de-paraffinized by sequential immersion in 100% xylene, 100% ethanol, 96% ethanol, and sterile DEPC-treated water. Antigen retrieval was performed using 10 mM sodium citrate buffer (pH 6.0) containing 0.05% Tween 20 (both Sigma-Aldrich) (20 minutes at 95° C.). After 3 PBS washes, sections were incubated overnight in 10% normal goat serum (Abcam, Cambridge Mass.) at 4° C., then incubated for 1 h at ambient temperate with rabbit anti-desmoglein-1 (clone EPR6766(B)) antibody, washed and incubated for 1 h with AlexaFluor® 488-labeled goat anti-rabbit IgG (antibodies from Abcam) (all antibodies were diluted in PBS with 1% BSA and 0.05% Tween 20). Sections were stained with DAPI and evaluated for levels of DSG1 protein (defined by calculating pixel numbers per 100 μm^2) using confocal microscopy and ImageJ software.

CC(=O)O[C@]1(C(C)=O)CC[C@H]2[C@@H]3C[C@H](C)C4=CC(=O)CC[C@]4(C)[C@H]3CC[C@@]21C [DMPA]
penetration of the 457 Da molecules into vaginal tissue (genital mucosal barrier [1]; confocal images, 45 minutes after ivag administration): greatest penetration
Mucosal permeability increase (genital mucosal barrier [1]; mice, ivag Lucifer yellow (457 Da) and Texas-Red dextran (70 KDa), 45 minutes, confocal microscopy): dramatically
Foci of virus replication observed in vaginal epithelium (HSV-1): observed
leukocyte entry into genital tissue (genital mucosal tissue): facilitates entry of leukocytes into genital mucosal tissue; also recorded: promoted leukocyte entry into genital tissue
gene expression of claudin-1, occludin, and tight junction protein 1 [2]: did not alter
permeability (genital mucosal barrier [3]): increased permeability
mucosal permeability ([4]; specimens collected after initiating hormonal contraceptive): increased mucosal permeability
correlation between serum DMPA levels and genital mucosal permeability ([4]; women): strong positive correlation
expression of markers of inflammation in ectocervical tissue (markers of inflammation): significantly higher
DSG1a protein expression in vaginal tissue (DSG1 protein): significantly reduced

Reference: US20220362330A1, “Compositions and Methods for Increasing Epithelial Barrier Function” (The Board of Trustees of the Leland Stanford Junior …, priority 2019, published 2022)
